Results published in the NIST ThermoML archive (doi:10.1016/j.tca.2015.06.017).

Test: xn = mol fraction of the nth substance listed
Conditions: Liquid, Vibrating tube method

CCC(C)Cl (configuration not stated) [2-chlorobutane] + CCCCCCC
mass density [kg/m3]
Conditions	293.15 K	298.15 K
100 kPa, x2 = 0.0524	–	853.5
100 kPa, x2 = 0.1018	–	841
100 kPa, x2 = 0.1968	–	818.39
100 kPa, x2 = 0.3006	–	795.55
100 kPa, x2 = 0.4029	–	774.75
100 kPa, x2 = 0.5017	–	756.09
100 kPa, x2 = 0.6008	–	738.72
100 kPa, x2 = 0.7023	–	722.14
100 kPa, x2 = 0.7977	–	707.68
100 kPa, x2 = 0.8986	–	693.37
100 kPa, x2 = 0.952	–	686.19
2000 kPa, x2 = 0.0524	–	855.76
2000 kPa, x2 = 0.1018	–	843.26
2000 kPa, x2 = 0.1968	–	820.66
2000 kPa, x2 = 0.3006	–	797.76
2000 kPa, x2 = 0.4029	–	776.96
2000 kPa, x2 = 0.5017	–	758.28
2000 kPa, x2 = 0.6008	–	740.85
2000 kPa, x2 = 0.7023	–	724.29
2000 kPa, x2 = 0.7977	–	709.77
2000 kPa, x2 = 0.8986	–	695.44
2000 kPa, x2 = 0.952	–	688.29
5000 kPa, x2 = 0.0524	–	859.07
5000 kPa, x2 = 0.1018	–	846.59
5000 kPa, x2 = 0.1968	–	823.96
5000 kPa, x2 = 0.3006	–	800.99
5000 kPa, x2 = 0.4029	–	780.1
5000 kPa, x2 = 0.5017	–	761.4
5000 kPa, x2 = 0.6008	–	743.93
5000 kPa, x2 = 0.7023	–	727.26
5000 kPa, x2 = 0.7977	–	712.67
5000 kPa, x2 = 0.8986	–	698.28
5000 kPa, x2 = 0.952	–	691.09
7000 kPa, x2 = 0.0524	–	861.28
7000 kPa, x2 = 0.1018	–	848.7
7000 kPa, x2 = 0.1968	–	826.06
7000 kPa, x2 = 0.3006	–	803.03
7000 kPa, x2 = 0.4029	–	782.16
7000 kPa, x2 = 0.5017	–	763.43
7000 kPa, x2 = 0.6008	–	745.91
7000 kPa, x2 = 0.7023	–	729.24
7000 kPa, x2 = 0.7977	–	714.61
7000 kPa, x2 = 0.8986	–	700.19
7000 kPa, x2 = 0.952	–	692.99
10000 kPa, x2 = 0.0524	–	864.5
10000 kPa, x2 = 0.1018	–	851.96
10000 kPa, x2 = 0.1968	–	829.21
10000 kPa, x2 = 0.3006	–	806.14
10000 kPa, x2 = 0.4029	–	785.11
10000 kPa, x2 = 0.5017	–	766.31
10000 kPa, x2 = 0.6008	–	748.74
10000 kPa, x2 = 0.7023	–	731.99
10000 kPa, x2 = 0.7977	–	717.31
10000 kPa, x2 = 0.8986	–	702.79
10000 kPa, x2 = 0.952	–	695.56
20000 kPa, x2 = 0.0524	–	874.44
20000 kPa, x2 = 0.1018	–	861.8
20000 kPa, x2 = 0.1968	–	838.93
20000 kPa, x2 = 0.3006	–	815.63
20000 kPa, x2 = 0.4029	–	794.49
20000 kPa, x2 = 0.5017	779.78	775.52
20000 kPa, x2 = 0.6008	761.93	757.79
20000 kPa, x2 = 0.7023	744.92	740.82
20000 kPa, x2 = 0.7977	730	726.04
20000 kPa, x2 = 0.8986	715.31	711.31
20000 kPa, x2 = 0.952	707.96	704.04
30000 kPa, x2 = 0.0524	888.05	883.44
30000 kPa, x2 = 0.1018	875.23	870.7
30000 kPa, x2 = 0.1968	852.05	847.61
30000 kPa, x2 = 0.3006	828.48	824.28
30000 kPa, x2 = 0.4029	807.16	802.95
30000 kPa, x2 = 0.5017	787.91	783.76
30000 kPa, x2 = 0.6008	769.94	765.87
30000 kPa, x2 = 0.7023	752.73	748.83
30000 kPa, x2 = 0.7977	737.68	733.86
30000 kPa, x2 = 0.8986	722.85	719
30000 kPa, x2 = 0.952	715.45	711.62
40000 kPa, x2 = 0.0524	896.17	891.7
40000 kPa, x2 = 0.1018	883.24	878.82
40000 kPa, x2 = 0.1968	859.99	855.64
40000 kPa, x2 = 0.3006	836.22	832.09
40000 kPa, x2 = 0.4029	814.71	810.61
40000 kPa, x2 = 0.5017	795.32	791.32
40000 kPa, x2 = 0.6008	777.21	773.3
40000 kPa, x2 = 0.7023	759.89	756.08
40000 kPa, x2 = 0.7977	744.68	741.01
40000 kPa, x2 = 0.8986	729.72	726.09
40000 kPa, x2 = 0.952	722.25	718.59
50000 kPa, x2 = 0.0524	903.66	899.36
50000 kPa, x2 = 0.1018	890.68	886.42
50000 kPa, x2 = 0.1968	867.25	863
50000 kPa, x2 = 0.3006	843.41	839.43
50000 kPa, x2 = 0.4029	821.7	817.84
50000 kPa, x2 = 0.5017	802.25	798.42
50000 kPa, x2 = 0.6008	784.01	780.24
50000 kPa, x2 = 0.7023	766.55	762.91
50000 kPa, x2 = 0.7977	751.26	747.7
50000 kPa, x2 = 0.8986	736.16	732.64
50000 kPa, x2 = 0.952	728.63	725.09
60000 kPa, x2 = 0.0524	910.6	906.5
60000 kPa, x2 = 0.1018	897.63	893.49
60000 kPa, x2 = 0.1968	874.05	870.05
60000 kPa, x2 = 0.3006	850.18	846.26
60000 kPa, x2 = 0.4029	828.39	824.58
60000 kPa, x2 = 0.5017	808.8	805.08
60000 kPa, x2 = 0.6008	790.44	786.84
60000 kPa, x2 = 0.7023	772.89	769.41
60000 kPa, x2 = 0.7977	757.51	754.11
60000 kPa, x2 = 0.8986	742.26	738.96
60000 kPa, x2 = 0.952	734.67	731.32
65000 kPa, x2 = 0.0524	913.94	909.89
65000 kPa, x2 = 0.1018	900.93	896.87
65000 kPa, x2 = 0.1968	877.31	873.4
65000 kPa, x2 = 0.3006	853.35	849.57
65000 kPa, x2 = 0.4029	831.52	827.86
65000 kPa, x2 = 0.5017	811.84	808.29
65000 kPa, x2 = 0.6008	793.41	789.99
65000 kPa, x2 = 0.7023	775.8	772.52
65000 kPa, x2 = 0.7977	760.33	757.18
65000 kPa, x2 = 0.8986	745.06	741.94
65000 kPa, x2 = 0.952	737.4	734.28
